The experiment in a line: Inhibition of LPS-induced macrophagic NOS at 100 uM.

As for `N=C(N)Nc1cccnc1`, the inhibition was determined as 50%.

In general, inhibition refers to the relative decrease from the control value, in per cent.
